Laboratory results as given in US20250339569A1, “CARBONIC ANHYDRASE IX LIGANDS” (priority 2021, published 2025).
Read-outs that look alike come from different tables or passages of the source.

Key:
[1] = Biodistribution study (SPECT/CT) in HT-29 tumor-bearing mice; format: in vivo, NMRI nude mice; settings: female, NMRI nude, mouse, in vivo, iv, total radioactivity, HT-29, In-111-labeled, Mean ± SEM
Description: (§1) The effect on tumor uptake of prior injection of gelofusine for kidney protection was investigated in mice bearing the SK-RC-52 tumor. Biodistribution was evaluated using in vivo SPECT/CT imaging. Prior to the in vivo study the compounds (ligands) were initially radiolabeled with In-111 and the stability of radiolabeled compounds was evaluated in buffer at three different timepoints.
(§2) The study was performed in female NMRI nude mice (approximately 6 weeks of age) from Janvier Labs, France, housed up to 5 mice per cage.
(§3) The column was washed with 2 mL water, and then the final product was eluted from the column in EtOH solution (50%) • The sample was formulated in PBS to the final concentration of 150 MBq/mL and 5 nmol/mL.
(§4) SK-RC-52 cells were cultured in RPMI 1640 with GlutaMax-I (Thermo Fisher Scientific #61870044) supplemented with 10% fetal bovine serum+1% penicillin/streptomycin, harvested, washed twice in RPMI 1640 and resuspended at 2×10^7 cells/mL in RPMI 1640. HT-29 cells were cultured in McCoy's 5a Medium Modified (Sigma #M9309). For inoculation of HT-29 cells, cells were harvested, washed twice in PBS and resuspended at 5×10^7 cells/mL in PBS. Cells were kept on ice until inoculation.
(§5) Animals were anaesthetized (isoflurane, 2-4% in ambient air supplemented with 100% 02) prior to tumor inoculation. The tumor cells (100 μL suspension of either SK-RC-52 cells (2×10^6 cells/animal) or HT-29 cells (5×10^6 cells/animal)) were subcutaneously inoculated in the right flank using a 1-mL syringe equipped with a 27 G needle. Tumor growth and animal weight were measured twice per week. Tumor size was measured by caliper and the volume was estimated using the following formula: 0.52×(length×width^2). When tumor sizes reached 150-250 mm^3, animals were randomized into groups (n=3) of similar average tumor volume and body weight.
(§6) Animals were injected intravenously with In-111-labeled compounds (single bolus, 22.3-31.2 MBq, ˜1 nmol ligand, injection volume: 100 μL) in the lateral tail vein using a 29 G syringe.
(§7) CT was performed with helical scan, 300 ms exposure, reconstruction resolution of 250 μm. SPECT was performed with multi-pinhole scan and a 30 s frame time. For the quantification of the radioactivity uptake, regions of interests (ROIs) were drawn over the tumor, kidney, liver, and heart (estimate of blood) identified on the images. Uptake was expressed as percent of injected dose per gram tissue (% ID/g).

HT-29 tumor = experiment: as above; format: in vivo, NMRI nude mice; settings: HT-29, In-111-labeled
Description: as §1, §2, §3, §4, §5, §6, §7

Structure (SMILES): CC(C)C[C@@H]1NC(=O)[C@H](Cc2cccc(NC(=O)CCCS(N)(=O)=O)c2)NC(=O)[C@H](CC(=O)O)NC(=O)[C@H]2CCCN2C(=O)[C@H](CCC(=O)O)NC(=O)[C@@H](NC(=O)[C@H](CCC(N)=O)NC(=O)CN2CCN(C(=O)CN3CCN(CC(=O)O)CCN(CC(=O)O)CCN(CC(=O)O)CC3)CC2)CSCc2cccc(c2)CSC[C@@H](C(N)=O)NC(=O)[C@H](CO)NC(=O)[C@H](Cc2c[nH]c3ccccc23)NC(=O)[C@H]([C@@H](C)O)NC1=O [DPI-4452, DOTA-PPAc-Gln-[Cys(3MeBn)-Glu-pro-Asp-Af3(Cpsu)-Leu-Thr-Trp-Ser-Cys]-NH2]
- tissue uptake at 4 h ([1]; read-out: Blood uptake at 4 h p.i.): 0.04 ± 0.002 %ID/g
- tissue uptake at 24 h ([1]; read-out: Kidney uptake at 24 h p.i.): 1.41 ± 0.11 %ID/g
- tissue uptake at 4 h ([1]; read-out: Liver uptake at 4 h p.i.): 0.12 ± 0.005 %ID/g
- Time to peak uptake in tumor (HT-29 tumor): 2 h
- % remaining tumor uptake at 24 h p.i. (HT-29 tumor; Mean ± SEM): 65.8 ± 3.8%
